Legend:
[1] = test system: T8R16/409 (RNA, aptamer) GCCUGCAAGUGCGACGAAUGGGAAAUAGCAAAAGAAAACAGAGACACCGACAUGUUAGAGACCACCGACGUG; experiment: isothermal titration calorimetry; conditions: 100 mM NaCl, 5 mM MgCl2, 50 mM HEPES, pH 7.6, 25 °C
[2] = test system: T5R8/359 (RNA, aptamer) GGAUGAGCGACGCUGGAAGGAAGAAAAUGCAGAAAAAAAGAAAAAAAUGUCUGGGUCUGGCGACUGCUC; experiment: isothermal titration calorimetry; conditions: 100 mM NaCl, 5 mM MgCl2, 50 mM HEPES, pH 7.6, 25 °C
[3] = RNA 6 μM, nucleotide 100–200 μM in syringe

Row | binding [1, 3] | Kd ([2]; one-site fit with stoichiometry constrained to 0.5) | Kd ([1]; one-site fit) | binding [2, 3] | SMILES
1 | no | ~ 7 μM | – | – | Nc1ncnc2c1ncn2[C@@H]1O[C@H](COP(=O)(O)OP(=O)(O)OP(=O)(O)O)[C@@H](O)[C@H]1O
2 | – | – | ~ 0.5 μM | no | Nc1nc2c(ncn2[C@@H]2O[C@H](COP(=O)(O)OP(=O)(O)OP(=O)(O)O)[C@@H](O)[C@H]2O)c(=O)[nH]1

Reference: paper PMC7615363 (2023)
